{
  "source": "patent US10925963B2",
  "about": "“Combination artemisinin and chemiluminescent photodynamic therapy and uses therefor” (Washington University, priority 2015, dated 2021)",
  "key": {"[1]": {"test_system": "hemozoin crystals in the parasite digestive vacuole", "assay": "Hemozoin dynamics in the digestive vacuole after light exposure", "type": "cell-based, Plasmodium falciparum", "conditions": "200 μM ALA-treated parasites; fluorescence image acquisition overlapping PPIX excitation", "description": "(§1) Images of live or fixed parasites were acquired on an Axio Imager.M1 epifluorescence microscope (Carl Zeiss Microimaging, Inc.) equipped with a Hamamatsu ORCA-ER digital CCD camera and running Axiovision 4.8 software, as described previously (Sigala, P. A., et al., J. Biol. Chem. 287, 37793-37807, 2012). Live parasite nuclei were stained with 5 μM Hoechst 33342 added immediately prior to image acquisition. For photodynamic imaging studies, parasites were cultured in 200-500 μM ALA in the absence or presence of 50 μM succinylacetone for 6-12 hours prior to visualization. Hemozoin movement in parasite digestive vacuoles were imaged by acquiring 10-20 sequential frames at 1 second intervals on the bright-field channel. Images were cropped and superimposed in Adobe Photoshop and exported as movie files with a 0.1 second frame delay. […]\nThe cytotoxic effects of light-activating PPIX were readily apparent by monitoring the motion of hemozoin crystals that dynamically tumble within the digestive vacuole of individual parasites. […] FIG. 3A depicts bright field and fluorescence microscopy images of untreated and 200 μM ALA-treated parasites. Fluorescence images were acquired with a Zeiss filter set 43 HE (excitation 537-562 nm, emission 570-640 nm). […]"}, "[2]": {"test_system": "uninfected erythrocytes", "assay": "Fluorescence microscopy of uninfected erythrocytes incubated in ALA", "type": "cell-based", "conditions": "500 μM ALA", "description": "as §1, with “delay. Immunofluorescence images were acquired by fixing and staining parasites as previously described (Tonkin, C. J., et al., Mol. Biochem. Parasitol 137, 13-21, 2004; Ponpuak, M., et al., Mol. Microbiol. 63, 314-334, 2007). Electron microscopy images were obtained as previously described (Beck., J. R., et al., Nature 511, 592-595, 2014).” for “delay.”\nFIG. 7A depicts Bright field and fluorescence (Zeiss filter set 43 HE) images of uninfected erythrocytes incubated in 500 μM ALA before or after electroporation."}, "[3]": {"test_system": "asynchronous 3D7 parasites", "assay": "Parasite growth of ALA-treated cultures with daily white-light exposure", "type": "cell-based, Plasmodium falciparum", "description": "Parasite growth was monitored by diluting asynchronous parasites to 0.5% parasitemia and allowing culture expansion with daily or twice daily media changes. […] To assess the light sensitivity of ALA-treated parasites, asynchronous parasites were cultured in 200-500 μM ALA in the absence or presence of 50 μM succinylacetone and subjected to 2-5 minute daily exposures to broad wavelength white light on an overhead projector. Daily parasitemia measurements were plotted as a function of time and fit to an exponential growth equation using Graph Pad Prism 5.0 (Graph Pad Software, Inc., La Jolla, Calif.).\nTo test the effects of these changes on bulk parasite culture, the present inventors monitored the growth of untreated versus ALA-treated parasites over several days with 2-minute daily exposures to broad-wavelength white light on an overhead projector light box. FIG. 4 depicts growth of asynchronous 3D7 parasites in the presence or absence of 200 μM ALA and 50 μM succinylacetone (SA), with 2-minute exposures to white light on an overhead projector on days 0-2. Parasitemia (percentage of total erythrocytes infected with parasites) as a function of time was fit with an exponential growth equation."}, "[4]": {"test_system": "Plasmodium-infected erythrocytes", "assay": "Fluorescence microscopy of PPIX accumulation in parasite-infected erythrocytes", "type": "cell-based, Plasmodium falciparum", "conditions": "parasites grown in 200 μM ALA; epifluorescence microscope", "description": "as §1\nThe present inventors investigated whether ALA treatment could serve as a probe of heme biosynthesis activity in Plasmodium-infected erythrocytes by enabling direct visualization of PPIX production and the cellular consequences of light activation. Untreated parasites imaged on an epifluorescence microscope display only background auto-fluorescence from hemozoin crystals in the parasite digestive vacuole (FIG. 2). […]"}, "[5]": {"test_system": "3D7 (drug sensitive) parasites", "assay": "Chemiluminescence-based photodynamic therapy (CL-PDT) parasite growth", "type": "cell-based, Plasmodium falciparum", "conditions": "50 μM succinylacetone", "description": "Parasitemia was measured daily as indicated above.\nThe present inventors tested whether intraerythrocytic parasites might be uniquely susceptible to chemiluminescence-based photodynamic therapy (CL-PDT) (FIG. 9A). Artemisinin and its derivatives are current frontline drugs used for treatment of malaria, usually in combination with a partner drug. To test the efficacy of an artemisinin CL-PDT strategy for treatment of blood-stage malaria, we incubated intraerythrocytic parasites in 50-100 μM ALA with or without luminol and sub-therapeutic doses (≤10% of EC50) of dihyroartemisinin (DHA), with twice-daily media changes."}, "[6]": {"test_system": "heme biosynthesis enzymes in the erythrocyte cytoplasm", "assay": "LC-MS/MS detection of 13C-labelled PPIX and CPP from 13C-ALA in erythrocyte lysate supernatants", "type": "biochemical", "conditions": "50 μM succinylacetone; 200 μM 5-[13C4]-ALA; saponin lysate supernatant, overnight 37° C.", "description": "Parasites were cultured in 200 μM 5-[^13C4]-ALA for 12-24 hours, harvested by centrifugation, lysed in 0.05% cold saponin, washed in PBS, and extracted with DMSO. Deuteroporphyrin was added as an internal standard, and extracts were analyzed for ^13C-labeled heme, PPIX, and CPPIII using a previously published liquid chromatography-multiple reaction monitoring tandem mass spectrometry assay (Ke, H. et al., J. Biol. Chem. 289, 34827-34837, 2014).\nTo assess the heme biosynthesis capacity of the erythrocyte cytoplasm, 500 μl packed red blood cells (described previously; Sigala, P. A., et al., J. Biol. Chem. 287, 37793-37807, 2012) were lysed in 20 ml of 0.04% saponin/PBS (0.2 μM filtered) and centrifuged at 25,000×g for 60 minutes to pellet unlysed cells and any organelles. The superficial 15 ml of the lysate supernatant was removed and 0.2 μM filtered, supplemented with 200 μM 5-[^13C4]-ALA in the absence or presence of 50 μM succinylacetone, incubated overnight at 37° C., and analyzed by tandem mass spectrometry as described above.\nIn these investigations, red porphyrin fluorescence in ALA-treated intraerythrocytic parasites was not limited to the parasitophorous vacuole but was detectable throughout the erythrocyte cytoplasm (FIG. 3A), as expected for host enzyme activity in this compartment and production of PPIX. […]"}},
  "data": [
    {"compound": "NCC(=O)CCC(=O)O", "note": "[ALA, 5-aminolevulinic acid]", "values": [
      {"measurement": "hemozoin dynamics after light", "setting": "[1]", "result": "rapidly ablated by light"},
      {"measurement": "porphyrin fluorescence of uninfected erythrocytes", "setting": "[2]; after electroporation", "result": "robust intracellular porphyrin fluorescence"},
      {"measurement": "porphyrin fluorescence of uninfected erythrocytes", "setting": "[2]; without electroporation", "result": "no detectable porphyrin fluorescence"},
      {"measurement": "growth of cultures in the presence of light", "setting": "[3]; 200 μM ALA, 2-minute daily exposures to white light on days 0-2", "result": "strongly attenuated by light"},
      {"measurement": "blood smear examination of light-exposed cultures", "setting": "[3]; ALA-treated cultures, 2-minute daily white light", "result": "predominantly contained pyknotic parasites"},
      {"measurement": "photosensitivity of growth in ALA after apicoplast disruption", "setting": "[3]; IPP/doxycycline-treated 3D7 parasites, 200 μM ALA, 2-minute light exposures", "result": "remained fully photosensitive"},
      {"measurement": "photosensitivity of clonal growth in ALA", "setting": "[3]; ΔPBGD and ΔCPO 3D7 parasite lines, 200 μM ALA, 2-minute light exposures days 0-2", "result": "remained fully photosensitive"},
      {"measurement": "porphyrin (PPIX) fluorescence of infected erythrocytes", "setting": "[4]", "result": "bright red fluorescence"}
    ]},
    {"compound": "CC(=O)CC(=O)CCC(=O)O", "note": "[succinylacetone]", "values": [
      {"measurement": "rescue of cytotoxicity of the ALA/luminol/DHA combination", "setting": "[5]", "result": "could be rescued"},
      {"measurement": "formation of 13C-labelled PPIX and coproporphyrin III from 13C-ALA", "setting": "[6]", "result": "fully blocked"},
      {"measurement": "rescue of photosensitivity of parasite growth in ALA", "setting": "[3]; 50 μM succinylacetone with 200 μM ALA, 2-minute light exposures", "result": "fully rescued"}
    ]}
  ]
}
